Among the data in PubChem BioAssay (NCI) are TGI values, retold here.

Holding throughout (assay): DTP human tumour cell line panel, 48 h
For test [1], the system named is MCF7 breast.
For test [2], the system named is SK-MEL-2 melanoma.
In test [3] the test system is M14 melanoma.
Test [4] has as its system A549 NSCLC.
The subject of test [5] is MDA-N.
The test system of test [6] is SW-620 colon.
Test [7] relates to NCI-H522 lung.
Test [8] relates to HS 578T breast.
Test [9] relates to COLO 205 colon.

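Five concentrations, 48 hours, 96-well plates. TGI is the concentration that stops growth completely.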

As usually defined, the TGI is the concentration at which net growth stops. The low end stands for more potent growth arrest, the high end for less potent growth arrest. Take `C[C@]12CC[C@H](O)CC1=CC[C@@H]1[C@@H]2CC[C@]2(C)C(=O)/C(=C/c3ccc([N+](=O)[O-])cc3)C[C@@H]12`: the TGI is above 100 µM in [1]; 36.5 µM in test [2]; above 100 µM in test [3]; 29.8 µM in test [4]; above 100 µM in test [5]; above 100 µM in test [6]. Further, the figures for the TGI in [7] and in [8] were 30.6 µM and 29.5 µM, respectively.

`COc1cccc([C@@H]2CC(=O)c3cc4c(cc3N2)OCO4)c1`: the TGI in [1], in [2], in test [3], in test [9], in test [4] and in test [5] was above 100 µM each time. For the same compound, the concentration for total growth inhibition (TGI) in [6] and in test [8] was above 100 µM each time.

Consider `O=C(CSCC(=O)N/N=C\c1ccccc1F)N/N=C\c1ccccc1F`, for which the TGI in [1], in test [2], in test [3], in test [9], in test [4] and in test [6] was above 100 µM in each case. In addition, the TGI in test [7] and in [8] was above 100 µM throughout.

On to `C[C@@]12C[C@@H](c3ccccc3O1)N1Cc3ccccc3CSC1=N2`, for which the concentration for total growth inhibition (TGI) in test [1], in test [2], in test [3], in test [9], in [5] and in test [6] was above 100 µM throughout. In addition, the TGI in test [7] and in [8] was above 100 µM in each case.

As for `O=C(NNS(=O)(=O)c1ccccc1)c1csc(NC(=S)NC2CCCCC2)n1`, the TGI in test [1] is above 100 µM; in test [2] it was 41.7 µM; in test [3], above 100 µM; in test [9], 43.3 µM; in test [4], above 100 µM; in test [5], 40.2 µM. Moreover, the figures for the TGI in test [6] and in test [7] were 72.9 µM and 82.7 µM, respectively.

With `CC1(C)CN=CC(C)(OCc2ccccc2)C(=O)NC(C)(C)CN=CC(C)(OCc2ccccc2)C(=O)N1` (stereo not given), the TGI in [1], in test [2], in test [3], in test [4], in test [5] and in [6] was above 10 µM each time. In test [8], this compound returned a TGI above 10 µM.

`N#Cc1c(N2CCCC2)nsc1Nc1ccc(F)cc1`: the total growth inhibition concentration (TGI) in test [2], in test [3], in [9], in test [4], in test [5] and in test [6] was above 100 µM in each case. Also, the TGI in test [7] and in [8] was above 100 µM in each case.

`O=c1[nH]nc(Cc2ccc(Cl)cc2)n1/N=C/c1c[nH]c2ccccc12`: the TGI in [1], in test [2], in [3], in test [4], in test [5] and in test [6] was above 100 µM each time. For the same compound, the TGI in [7] and in test [8] was above 100 µM in each case.

As to `NC1=Nc2ccccc2Sc2nc3ccccc3n21`, the TGI in test [1] is above 100 µM; in [3], 82.4 µM; in test [9], above 100 µM; in test [4], above 100 µM; in test [5], above 100 µM; in [6] it was above 100 µM. In addition, the total growth inhibition concentration (TGI) in test [7] and in [8] was above 100 µM in each case.

Regarding `O=C(c1ccccc1)c1c(C(F)(F)F)n([O-])c2cc(F)c(F)cc2[n+]1=O`, the TGI in test [1] was 1.71 µM; in [2], 4.44 µM; in [3] it was 1.49 µM; in test [9], above 69.6 µM; in test [4], 8.34 µM; in test [6] it was above 100 µM. Besides, the concentration for total growth inhibition (TGI) in test [7] was above 7.96 µM; in [8], 2.48 µM.

Turning to `CN(C)CC1CCCc2ccccc2C1=O` (stereo not given), the TGI in test [1] is 0.644 µM; in test [2], 4 µM; in [3], 3.42 µM; in [9], 12.5 µM; in test [4] it was 39.5 µM; in test [5], 3.07 µM. For the same compound, the TGI in test [8] came out at 16.3 µM.

For `CC(C)C1=C(Cc2ccccc2)C(=O)O/C1=C\c1ccc(O)c(Cl)c1`, the TGI came to 30.3 µM in test [1]; 31.3 µM in test [3]; 34.6 µM in test [9]; 28.4 µM in test [4]; 30.1 µM in test [5]; 34.9 µM in test [6]. This compound gave a TGI in [8] of 33.9 µM.

Regarding `N#Cc1ccc2[nH]c3c(c2c1)CC(=O)Nc1ccccc1-3`, the TGI in test [1], in test [2], in test [3], in [9], in test [4] and in test [6] was above 100 µM each time. The TGI in test [7] and in test [8] was above 100 µM throughout.

`COc1cc2[nH]c(=O)c3cc(C)cc4c(Cl)nc(c1OC)c2c43`: the TGI in [1], in [2], in test [3], in test [9], in [4] and in test [5] was above 100 µM in each case. Moreover, the total growth inhibition concentration (TGI) in test [6] and in test [7] was above 100 µM each time.

`O=C1c2cccnc2-c2nccc3c2c1nc1ccc(Br)cc13`: the TGI in test [1] was below 0.03 µM; in test [2], 0.306 µM; in [3], 0.0773 µM; in test [9] it was 1.6 µM; in test [4] it was 0.387 µM; in test [5], 0.249 µM. Besides, the TGI is 0.17 µM in [6] and 0.128 µM in [7].

Regarding `CO[C@]12CC(=O)C3(C(C[C@H]4CC5CC[C@H]6C[C@@H](OC(C)=O)CC[C@]6(OC(C)=O)C5C[C@@]43C)C1)C1C[C@H]3[C@@H]4CC[C@H]5C[C@@H](OC(C)=O)CC[C@]5(OC(C)=O)[C@H]4CC[C@]3(C)C12` (stereo not given in full), the TGI in test [1], in [2], in test [3], in test [9], in [4] and in test [5] was above 100 µM in each case. Moreover, the TGI in test [6] and in test [8] was above 100 µM in each case.
